{
  "source": "patent US12649750B2",
  "about": "“Macrocyclic compounds, compositions, and methods of using thereof” (Sionna Therapeutics Inc., priority 2022, dated 2026)",
  "data": [
    {"molecular_target": "T1, NBD1 (Homo sapiens, UniProt P13569)", "T1 construct": "Purified recombinant NBD1 was produced using previously described methods; made in house", "T1 sequence (P13569 423-646 limits assumed)": "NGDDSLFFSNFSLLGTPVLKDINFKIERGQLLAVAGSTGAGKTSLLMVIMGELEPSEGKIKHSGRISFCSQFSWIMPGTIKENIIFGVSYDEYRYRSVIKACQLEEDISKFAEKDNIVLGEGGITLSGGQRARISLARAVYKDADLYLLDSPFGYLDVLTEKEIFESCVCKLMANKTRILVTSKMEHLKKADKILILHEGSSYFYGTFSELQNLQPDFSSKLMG", "assay": "Aggregation analysis using differential static light scattering (DSLS), thermal stability of NBD1 (ΔTagg)", "format": "binding", "settings": "ΔTagg versus DMSO control, NBD1 0.2 mg/ml", "method_in_brief": "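Thermal aggregation of purified NBD1 was followed by static light scattering during a 1° C./min ramp to 70° C. Protein was at 0.2 mg/ml with 2 mM ATP at pH7.6. Each compound's Tagg was referenced to DMSO controls.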", "values": [
      {"smiles": "Cn1nc2nc1-c1cc(ccc1F)Sc1c(F)c(F)c3[nH]ccc3c1CCS(=O)(=O)CC(C)(C)CCC[C@]2(C)c1cccc(CC2(C(=O)O)CC2)c1", "note": "[Compound 303A, 1-[[3-[(6R)-21,22,28-Trifluoro-3,6,10,10-tetramethyl-12,12-dioxo-12λ6,24-dithia-3,4,19,30-tetrazapentacyclo[23.3.1.12,5.015,23.016,20]triaconta-1(29),2(30),4,15,17,20,22,25,27-nonaen-6-yl]phenyl]methyl]cyclopropanecarboxylic acid]", "DSLS 3D (100 μM ΔT)": "B (a value above 5 °C and less than or equal to 10 °C is marked “B”)"},
      {"smiles": "C[C@@H](Cc1cccc([C@@]2(C)CCCC(C)(C)CS(=O)(=O)CCc3c(c(F)c(F)c4[nH]ccc34)Cc3ccnc(c3)-c3nc2nn3C)c1)C(=O)O", "note": "[Compound 304, (2S)-3-[3-[(6R)-21,22-Difluoro-3,6,10,10-tetramethyl-12,12-dioxo-12λ6-thia-3,4,19,28,30-pentazapentacyclo[23.3.1.12,5.015,23.016,20]triaconta-1(29),2(30),4,15,17,20,22,25,27-nonaen-6-yl]phenyl]-2-methyl-propanoic Acid]", "DSLS 3D (100 μM ΔT)": "B (a value above 5 °C and less than or equal to 10 °C is marked “B”)"},
      {"smiles": "C[C@H](Cc1cccc([C@@]2(C)CCCC(C)(C)CS(=O)(=O)CCc3c(c(F)c(F)c4[nH]ccc34)Cc3ccnc(c3)-c3nc2nn3C)c1)C(=O)O", "note": "[Compound 305, (2R)-3-[3-[(6R)-21,22-Difluoro-3,6,10,10-tetramethyl-12,12-dioxo-12λ6-thia-3,4,19,28,30-pentazapentacyclo[23.3.1.12,5.015,23.016,20]triaconta-1(29),2(30),4,15,17,20,22,25,27-nonaen-6-yl]phenyl]-2-methyl-propanoic acid]", "DSLS 3D (100 μM ΔT)": "B (a value above 5 °C and less than or equal to 10 °C is marked “B”)"},
      {"smiles": "Cn1nc2nc1-c1cc(ccn1)Cc1c(F)c(F)c3[nH]ccc3c1CCS(=O)(=O)CC(C)(C)CCC[C@]2(C)c1cccc(CC2(C(=O)O)CC2)c1", "note": "[Compound 306, 1-[[3-[(6R)-21,22-Difluoro-3,6,10,10-tetramethyl-12,12-dioxo-12λ6-thia-3,4,19,28,30-pentazapentacyclo[23.3.1.12,5.015,23.016,20]triaconta-1(29),2(30),4,15,17,20,22,25,27-nonaen-6-yl]phenyl]methyl]cyclopropanecarboxylic Acid]", "DSLS 3D (100 μM ΔT)": "A (an ΔTagg value less than or equal to 5 °C is marked “A”)"},
      {"smiles": "Cn1nc2nc1-c1cc(ccn1)Cc1c(F)c(F)c3[nH]ccc3c1CCS(=O)(=O)CC(C)(C)CCC[C@]2(C)c1cccc(CC(C)(C)C(=O)O)c1", "note": "[Compound 307, 3-[3-[(6R)-21,22-Difluoro-3,6,10,10-tetramethyl-12,12-dioxo-12λ6-thia-3,4,19,28,30-pentazapentacyclo[23.3.1.12,5.015,23.016,20]triaconta-1(29),2(30),4,15,17,20,22,25,27-nonaen-6-yl]phenyl]-2,2-dimethyl-propanoic Acid]", "DSLS 3D (100 μM ΔT)": "A (an ΔTagg value less than or equal to 5 °C is marked “A”)"},
      {"smiles": "Cn1nc2nc1-c1cc(ccn1)Sc1c(F)c(F)c3[nH]ccc3c1CCS(=O)(=O)CC(C)(C)CCC[C@]2(C)c1cccc(CC2(C(=O)O)CC2)c1", "note": "[Compound 308, 1-[[3-[(6R)-21,22-difluoro-3,6,10,10-tetramethyl-12,12-dioxo-12λ6,24-dithia-3,4,19,28,30-pentazapentacyclo[23.3.1.12,5.015,23.016,20]triaconta-1(29),2(30),4,15,17,20,22,25,27-nonaen-6-yl]phenyl]methyl]cyclopropanecarboxylic acid]", "DSLS 3D (100 μM ΔT)": "B (a value above 5 °C and less than or equal to 10 °C is marked “B”)"},
      {"smiles": "Cn1nc2nc1-c1cc(ccn1)S(=O)(=O)c1c(F)c(F)c3[nH]ccc3c1CCS(=O)(=O)CC(C)(C)CCC[C@]2(C)c1cccc(CC2(C(=O)O)CC2)c1", "note": "[Compound 310, 1-[[3-[(6R)-21,22-difluoro-3,6,10,10-tetramethyl-12,12,24,24-tetraoxo-12λ6,24λ6-dithia-3,4,19,28,30-pentazapentacyclo[23.3.1.12,5.015,23.016,20]triaconta-1(29),2(30),4,15,17,20,22,25,27-nonaen-6-yl]phenyl]methyl]cyclopropanecarboxylic acid]", "DSLS 3D (100 μM ΔT)": "A (an ΔTagg value less than or equal to 5 °C is marked “A”)"},
      {"smiles": "Cn1nc2nc1-c1cc(ccn1)Cc1c(F)cc3[nH]ccc3c1CCS(=O)(=O)CC(C)(C)CCC[C@]2(C)c1cccc(C[C@@H](O)CO)c1", "note": "[Compound 311, (2R)-3-[3-[(6R)-22-Fluoro-3,6,10,10-tetramethyl-12,12-dioxo-12λ6-thia-3,4,19,28,30-pentazapentacyclo[23.3.1.12,5.015,23.016,20]triaconta-1(29),2(30),4,15,17,20,22,25,27-nonaen-6-yl]phenyl]propane-1,2-diol]", "DSLS 3D (100 μM ΔT)": "A (an ΔTagg value less than or equal to 5 °C is marked “A”)"},
      {"smiles": "Cn1nc2nc1-c1cc(ccn1)Cc1c(F)cc3[nH]ccc3c1CCS(=O)(=O)CC(C)(C)CCC[C@]2(C)c1cccc(C[C@H](O)CO)c1", "note": "[Compound 312, (2S)-3-[3-[(6R)-22-Fluoro-3,6,10,10-tetramethyl-12,12-dioxo-12λ6-thia-3,4,19,28,30-pentazapentacyclo[23.3.1.12,5.015,23.016,20]triaconta-1(29),2(30),4,15,17,20,22,25,27-nonaen-6-yl]phenyl]propane-1,2-diol]", "DSLS 3D (100 μM ΔT)": "A (an ΔTagg value less than or equal to 5 °C is marked “A”)"},
      {"smiles": "Cn1nc2nc1-c1cc(ccn1)Cc1c(F)cc3[nH]ccc3c1CCS(=O)(=O)CC(C)(C)CCC[C@]2(C)c1cccc(CC2(C(=O)O)CC2)c1", "note": "[Compound 313, 1-[[3-[(6R)-22-Fluoro-3,6,10,10-tetramethyl-12,12-dioxo-12λ6-thia-3,4,19,28,30-pentazapentacyclo[23.3.1.12,5.015,23.016,20]triaconta-1(29),2(30),4,15,17,20,22,25,27-nonaen-6-yl]phenyl]methyl]cyclopropanecarboxylic acid]", "DSLS 3D (100 μM ΔT)": "B (a value above 5 °C and less than or equal to 10 °C is marked “B”)"},
      {"smiles": "C[C@@H](Cc1cccc(C2(C)CCCC(C)(C)CS(=O)(=O)CCc3c(c(F)cc4[nH]ccc34)S(=O)(=O)c3ccnc(c3)-c3nc2nn3C)n1)C(=O)O", "note": "(stereo partly drawn) [Compound 315E, (2S)-3-[6-(22-fluoro-3,6,10,10-tetramethyl-12,12,24,24-tetraoxo-12λ6,24λ6-dithia-3,4,19,28,30-pentazapentacyclo[23.3.1.12,5.015,23.016,20]triaconta-1(29),2(30),4,15,17,20,22,25,27-nonaen-6-yl)-2-pyridyl]-2-methyl-propanoic Acid]", "DSLS 3D (100 μM ΔT)": "A (an ΔTagg value less than or equal to 5 °C is marked “A”)"},
      {"smiles": "C[C@H](Cc1cccc([C@@]2(C)CCCC(C)(C)CS(=O)(=O)CCc3c(c(F)c(F)c4[nH]ccc34)S(=O)(=O)c3ccc(F)c(c3)-c3nc2nn3C)c1)C(=O)O", "note": "[Compound 320, (2R)-2-Methyl-3-[3-[(6R)-21,22,28-trifluoro-3,6,10,10-tetramethyl-12,12,24,24-tetraoxo-12λ6,24λ6-dithia-3,4,19,30-tetrazapentacyclo[23.3.1.12,5.015,23.016,20]triaconta-1(29),2(30),4,15,17,20,22,25,27-nonaen-6-yl]phenyl]propanoic acid]", "DSLS 3D (100 μM ΔT)": "B (a value above 5 °C and less than or equal to 10 °C is marked “B”)"},
      {"smiles": "Cc1c[nH]c2c(F)c(F)c3c(c12)CCS(=O)(=O)CC(C)(C)CCC[C@](C)(c1cccc(C[C@@H](C)C(=O)O)c1)c1nc(n(C)n1)-c1cc(ccc1F)O3", "note": "[Compound 321, (2R)-2-Methyl-3-[3-[(6R)-21,22,28-trifluoro-3,6,10,10,17-pentamethyl-12,12-dioxo-24-oxa-12λ6-thia-3,4,19,30-tetrazapentacyclo[23.3.1.12,5.015,23.016,20]triaconta-1(29),2(30),4,15,17,20,22,25,27-nonaen-6-yl]phenyl]propanoic Acid]", "DSLS 3D (100 μM ΔT)": "A (an ΔTagg value less than or equal to 5 °C is marked “A”)"},
      {"smiles": "C[C@H](Cc1cccc([C@@]2(C)CCCC(C)(C)CS(=O)(=O)CCc3c(c(F)c(F)c4[nH]cc(C#N)c34)Oc3ccc(F)c(c3)-c3nc2nn3C)c1)C(=O)O", "note": "[Compound 322, (2R)-3-[3-[(6R)-17-Cyano-21,22,28-trifluoro-3,6,10,10-tetramethyl-12,12-dioxo-24-oxa-12λ6-thia-3,4,19,30-tetrazapentacyclo[23.3.1.12,5.015,23.016,20]triaconta-1(29),2(30),4,15,17,20,22,25,27-nonaen-6-yl]phenyl]-2-methyl-propanoic Acid]", "DSLS 3D (100 μM ΔT)": "B (a value above 5 °C and less than or equal to 10 °C is marked “B”)"},
      {"smiles": "Cn1nc2nc1-c1cc(ccn1)Oc1c(F)c(F)c3[nH]ccc3c1CCS(=O)(=O)CC(C)(C)CCC[C@]2(C)c1cccc(CC(C)(C)C(=O)O)c1", "note": "[Compound 323, 3-[3-[(6R)-21,22-Difluoro-3,6,10,10-tetramethyl-12,12-dioxo-24-oxa-12λ6-thia-3,4,19,28,30-pentazapentacyclo[23.3.1.12,5.015,23.016,20]triaconta-1(29),2(30),4,15,17,20,22,25,27-nonaen-6-yl]phenyl]-2,2-dimethyl-propanoic Acid]", "DSLS 3D (100 μM ΔT)": "B (a value above 5 °C and less than or equal to 10 °C is marked “B”)"},
      {"smiles": "Cn1nc2nc1-c1cc(ccc1F)Oc1c(F)c(F)c3[nH]ccc3c1CCS(=O)(=O)CC(C)(C)CCC[C@]2(C)c1cccc(CC(C)(C)C(=O)O)c1", "note": "[Compound 324, 2,2-Dimethyl-3-[3-[(6R)-21,22,28-trifluoro-3,6,10,10-tetramethyl-12,12-dioxo-24-oxa-12λ6-thia-3,4,19,30-tetrazapentacyclo[23.3.1.12,5.015,23.016,20]triaconta-1(29),2(30),4,15,17,20,22,25,27-nonaen-6-yl]phenyl]propanoic Acid]", "DSLS 3D (100 μM ΔT)": "B (a value above 5 °C and less than or equal to 10 °C is marked “B”)"}
    ]}
  ]
}
